Patent US12286442B2, “Methods and materials for increasing transcription factor eb polypeptide levels” (University of Pittsburgh—Of the Commonwealth System of …, priority 2019, dated 2025)

test system: TFEB; experiment: High content screen measuring TFEB nuclear accumulation (TFEB nuclear/cytosol ratio) in BEAS-2B cells stably expressing TFEB-EGFP; format: cell-based, human; details: 18 hours incubation
How it was run: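 BEAS-2B cells stably expressing TFEB-EGFP (~2300–2500 per well) pre-incubated 8 hours, then exposed to serially diluted compounds (DMEM low glucose, 2% FBS) for 18 hours, PFA-fixed and DAPI-stained. Imaged nuclear (DAPI mask) vs cytosolic (expanded mask) TFEB-GFP; activity = minimal concentration raising nuclear/cytosol ratio by 25%.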

Compound | efficacy (minimal compound concentration needed to increase TFEB nuclear/cytosol ratio by 25%)
Fc1cc(-c2nc(Nc3ccc4[nH]ncc4c3)c3ccccc3n2)ccn1 [Compound 47] | +++ (“+++” equals ≤1 μM)
c1ccc2c(Nc3ccc4nccnc4c3)nc(-c3ccncc3)nc2c1 [Compound 103] | +++ (“+++” equals ≤1 μM)
CCCCc1nc2ccc(Nc3nc(-c4ccncc4)nc4ncccc34)cc2o1 [Compound 365] | +++ (“+++” equals ≤1 μM)
O=c1[nH]c2ccc(Nc3nc(-c4ccncc4)nc4ccccc34)cc2[nH]1 [Compound 39] | + (“+” equals >25 μM)
c1cnc2ccc(Nc3nc(-c4ccncc4)nc4ncccc34)cc2c1 [Compound 138] | +++ (“+++” equals ≤1 μM)
COc1ccc(-n2c(=O)c3ccc(C(=O)NCCc4ccccc4)cc3n(Cc3cccc(F)c3)c2=O)cc1 [Compound 236] | ++ (“++” equals between ≤25 μM and >1 μM)
c1cnc2nc(-c3ccncc3)nc(Nc3ccc4ncsc4c3)c2c1 [Compound 132] | +++ (“+++” equals ≤1 μM)
Fc1c(-c2ccncc2)nc(Nc2ccc3nc(C4CC4)sc3c2)c2cccnc12 [Compound 332] | +++ (“+++” equals ≤1 μM)
Fc1cccc(Nc2nc(-c3ccncc3)nc3ncccc23)c1 [Compound 82] | +++ (“+++” equals ≤1 μM)
Cn1ncc2cc(Nc3nc(-c4ccncc4)nc4ccccc34)ccc21 [Compound 31] | +++ (“+++” equals ≤1 μM)
c1ccc2c(Nc3ccc4[nH]ncc4c3)cc(-c3ccncc3)nc2c1 [Compound 68] | + (“+” equals >25 μM)
Cc1c(Nc2nc(-c3ccncc3)nc3ncccc23)ccc2[nH]ccc12 [Compound 137] | +++ (“+++” equals ≤1 μM)
Cc1cc(F)cc(Nc2nc(N3CCOCC3)nc3ccccc23)c1 [Compound 46] | + (“+” equals >25 μM)
CC(C)(C)c1cc2cc(Nc3nc(-c4ccncc4)nc4ncccc34)ccc2[nH]1 [Compound 134] | +++ (“+++” equals ≤1 μM)
CC(C)c1nc2ccc(Nc3nc(-c4ccncc4)nc4cc(F)ccc34)cc2s1 [Compound 355] | ++ (“++” equals between ≤25 μM and >1 μM)
CC(=O)c1cc(F)cc(Nc2nc(-c3ccncc3)nc3ccccc23)c1 [Compound 51] | + (“+” equals >25 μM)
c1cnc2nc(-c3ccncc3)nc(Nc3ccc4[nH]ccc4c3)c2c1 [Compound 81] | +++ (“+++” equals ≤1 μM)
Fc1cccc2nc(-c3ccncc3)nc(Nc3ccc4[nH]ccc4c3)c12 [Compound 111] | + (“+” equals >25 μM)
CC(C)(C)c1nc2ccc(Nc3nc(-c4ccncc4)nc4ccccc34)cc2s1 [Compound 93] | + (“+” equals >25 μM)
Oc1ccc(-c2nc(Nc3cccc(F)c3)c3ccccc3n2)cc1 [Compound 65] | + (“+” equals >25 μM)
c1ccc2c(Nc3ccc4c(c3)OCO4)nc(-c3ccncc3)nc2c1 [Compound 12] | +++ (“+++” equals ≤1 μM)
COc1ccc(-n2c(=O)c3ccc(C(=O)NCCc4ccccc4)cc3n(Cc3cccc(F)c3)c2=O)cc1 [Compound 215] | ++ (“++” equals between ≤25 μM and >1 μM)
CNc1ccc(Nc2nc(-c3ccncc3)nc3ccccc23)cc1 [Compound 59] | ++ (“++” equals between ≤25 μM and >1 μM)
c1ccc2c(Nc3ccc4[nH]ccc4c3)nc(-c3cncs3)nc2c1 [Compound 78] | ++ (“++” equals between ≤25 μM and >1 μM)
CC(C)c1nc2ccc(Nc3nc(-c4ccncc4)nc4ccc(F)cc34)cc2s1 [Compound 354] | + (“+” equals >25 μM)
OC(c1cccc(F)c1)c1nc(-c2ccncc2)nc2ccccc12 (stereo not shown) [Compound 6] | + (“+” equals >25 μM)
Fc1cccc(Nc2cc(-c3ccncc3)nc3ccccc23)c1 [Compound 69] | + (“+” equals >25 μM)
c1cncc(-c2cc3ncccc3c(Nc3ccc4nc(C5CC5)sc4c3)n2)c1 [Compound 247] | ++ (“++” equals between ≤25 μM and >1 μM)
Cc1cc(Nc2nc(-c3ccncc3)nc3ccccc23)cc(C(F)(F)F)c1 [Compound 10] | + (“+” equals >25 μM)

test system: BEAS-2B cells; experiment: Toxicity: compound concentration needed to induce greater than 50 percent of cell loss; format: cell-based, human; details: 18 hours incubation
How it was run: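 BEAS-2B cells stably expressing TFEB-EGFP treated with serial compound dilutions for 18 h, then PFA-fixed, DAPI-stained and imaged. Toxicity scored as the concentration causing >50% cell loss, binned as ≥25 μM, <25 and >1 μM, or ≤1 μM ("+++").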

Compound | toxicity (compound concentration needed to induce greater than 50 percent of cell loss)
Fc1cc(-c2nc(Nc3ccc4[nH]ncc4c3)c3ccccc3n2)ccn1 [Compound 47] | +++ (cell loss of greater than 50 percent at a concentration that equals or is less than 1 μM was represented as “+++.”)
c1ccc2c(Nc3ccc4nccnc4c3)nc(-c3ccncc3)nc2c1 [Compound 103] | + (cell loss of greater than 50 percent at a concentration that equals or is greater than 25 μM was represented as)
CCCCc1nc2ccc(Nc3nc(-c4ccncc4)nc4ncccc34)cc2o1 [Compound 365] | + (cell loss of greater than 50 percent at a concentration that equals or is greater than 25 μM was represented as)
O=c1[nH]c2ccc(Nc3nc(-c4ccncc4)nc4ccccc34)cc2[nH]1 [Compound 39] | + (cell loss of greater than 50 percent at a concentration that equals or is greater than 25 μM was represented as)
c1cnc2ccc(Nc3nc(-c4ccncc4)nc4ncccc34)cc2c1 [Compound 138] | + (cell loss of greater than 50 percent at a concentration that equals or is greater than 25 μM was represented as)
COc1ccc(-n2c(=O)c3ccc(C(=O)NCCc4ccccc4)cc3n(Cc3cccc(F)c3)c2=O)cc1 [Compound 236] | + (cell loss of greater than 50 percent at a concentration that equals or is greater than 25 μM was represented as)
c1cnc2nc(-c3ccncc3)nc(Nc3ccc4ncsc4c3)c2c1 [Compound 132] | + (cell loss of greater than 50 percent at a concentration that equals or is greater than 25 μM was represented as)
Fc1c(-c2ccncc2)nc(Nc2ccc3nc(C4CC4)sc3c2)c2cccnc12 [Compound 332] | + (cell loss of greater than 50 percent at a concentration that equals or is greater than 25 μM was represented as)
Fc1cccc(Nc2nc(-c3ccncc3)nc3ncccc23)c1 [Compound 82] | + (cell loss of greater than 50 percent at a concentration that equals or is greater than 25 μM was represented as)
Cn1ncc2cc(Nc3nc(-c4ccncc4)nc4ccccc34)ccc21 [Compound 31] | +++ (cell loss of greater than 50 percent at a concentration that equals or is less than 1 μM was represented as “+++.”)
c1ccc2c(Nc3ccc4[nH]ncc4c3)cc(-c3ccncc3)nc2c1 [Compound 68] | + (cell loss of greater than 50 percent at a concentration that equals or is greater than 25 μM was represented as)
Cc1c(Nc2nc(-c3ccncc3)nc3ncccc23)ccc2[nH]ccc12 [Compound 137] | + (cell loss of greater than 50 percent at a concentration that equals or is greater than 25 μM was represented as)
Cc1cc(F)cc(Nc2nc(N3CCOCC3)nc3ccccc23)c1 [Compound 46] | + (cell loss of greater than 50 percent at a concentration that equals or is greater than 25 μM was represented as)
CC(C)(C)c1cc2cc(Nc3nc(-c4ccncc4)nc4ncccc34)ccc2[nH]1 [Compound 134] | + (cell loss of greater than 50 percent at a concentration that equals or is greater than 25 μM was represented as)
CC(C)c1nc2ccc(Nc3nc(-c4ccncc4)nc4cc(F)ccc34)cc2s1 [Compound 355] | + (cell loss of greater than 50 percent at a concentration that equals or is greater than 25 μM was represented as)
CC(=O)c1cc(F)cc(Nc2nc(-c3ccncc3)nc3ccccc23)c1 [Compound 51] | + (cell loss of greater than 50 percent at a concentration that equals or is greater than 25 μM was represented as)
c1cnc2nc(-c3ccncc3)nc(Nc3ccc4[nH]ccc4c3)c2c1 [Compound 81] | ++ (cell loss of greater than 50 percent at a concentration less than 25 μM and greater than 1 μM was represented as)
Fc1cccc2nc(-c3ccncc3)nc(Nc3ccc4[nH]ccc4c3)c12 [Compound 111] | + (cell loss of greater than 50 percent at a concentration that equals or is greater than 25 μM was represented as)
CC(C)(C)c1nc2ccc(Nc3nc(-c4ccncc4)nc4ccccc34)cc2s1 [Compound 93] | + (cell loss of greater than 50 percent at a concentration that equals or is greater than 25 μM was represented as)
Oc1ccc(-c2nc(Nc3cccc(F)c3)c3ccccc3n2)cc1 [Compound 65] | + (cell loss of greater than 50 percent at a concentration that equals or is greater than 25 μM was represented as)
c1ccc2c(Nc3ccc4c(c3)OCO4)nc(-c3ccncc3)nc2c1 [Compound 12] | + (cell loss of greater than 50 percent at a concentration that equals or is greater than 25 μM was represented as)
COc1ccc(-n2c(=O)c3ccc(C(=O)NCCc4ccccc4)cc3n(Cc3cccc(F)c3)c2=O)cc1 [Compound 215] | ++ (cell loss of greater than 50 percent at a concentration less than 25 μM and greater than 1 μM was represented as)
CNc1ccc(Nc2nc(-c3ccncc3)nc3ccccc23)cc1 [Compound 59] | + (cell loss of greater than 50 percent at a concentration that equals or is greater than 25 μM was represented as)
c1ccc2c(Nc3ccc4[nH]ccc4c3)nc(-c3cncs3)nc2c1 [Compound 78] | + (cell loss of greater than 50 percent at a concentration that equals or is greater than 25 μM was represented as)
CC(C)c1nc2ccc(Nc3nc(-c4ccncc4)nc4ccc(F)cc34)cc2s1 [Compound 354] | + (cell loss of greater than 50 percent at a concentration that equals or is greater than 25 μM was represented as)
OC(c1cccc(F)c1)c1nc(-c2ccncc2)nc2ccccc12 (stereo not shown) [Compound 6] | + (cell loss of greater than 50 percent at a concentration that equals or is greater than 25 μM was represented as)
Fc1cccc(Nc2cc(-c3ccncc3)nc3ccccc23)c1 [Compound 69] | + (cell loss of greater than 50 percent at a concentration that equals or is greater than 25 μM was represented as)
c1cncc(-c2cc3ncccc3c(Nc3ccc4nc(C5CC5)sc4c3)n2)c1 [Compound 247] | + (cell loss of greater than 50 percent at a concentration that equals or is greater than 25 μM was represented as)
Cc1cc(Nc2nc(-c3ccncc3)nc3ccccc23)cc(C(F)(F)F)c1 [Compound 10] | + (cell loss of greater than 50 percent at a concentration that equals or is greater than 25 μM was represented as)
